{"source": "patent US11992478B2", "about": "“Methods of using androgen receptor inhibitors as cancer therapeutics” (THE TRUSTEES OF THE UNIVERSITY OF PENNSYLVANIA, priority 2020, dated 2024)", "key": {"[1]": {"system": "mouse melanoma cells (YUMM1.7)", "assay": "Cell proliferation of mouse melanoma cells (YUMM1.7)", "assay_type": "cell-based"}, "[2]": {"system": "human melanoma cells (WM46)", "assay": "Cell proliferation of human melanoma cells (WM46)", "assay_type": "cell-based", "conditions": "for proliferation following addition of cations: WM46, over 6-days (FIG. 4D)"}, "p-ERK (MAPK activation)": {"system": "p-ERK (MAPK activation)", "assay": "ERK phosphorylation / MAPK activation (Western blot)", "assay_type": "cell-based, human"}, "ZIP9": {"system": "ZIP9", "conditions": "competitive binding assays; cited from earlier work"}, "human WM46 melanoma": {"system": "human WM46 melanoma", "assay": "WM46 melanoma tumor growth in SCID mice", "assay_type": "in vivo", "conditions": "for effect on tumors with engineered ZIP9 loss: either male or female mice", "text": "The tumor-promoting effects of testosterone on early prostate cancer are known, and inhibition of testosterone signaling is a first-line treatment. […] Here it is shown that targeting nonclassical testosterone signaling through ZIP9 is therapeutically useful for cancer (FIG. 13)."}, "melanoma cells": {"system": "melanoma cells", "assay": "Testosterone-induced hyperproliferation in melanoma cells (FIG. 10A)", "assay_type": "cell-based", "conditions": "2 μM Bicalutamide (FIG. 10A)"}, "[3]": {"system": "cell lines derived from diverse human and murine tumor types", "assay": "Testosterone-induced hyperproliferation in a panel of tumor cell lines (FIG. 11)", "assay_type": "cell-based"}, "human PDAC": {"system": "human PDAC", "assay": "Cell proliferation of human PDAC cells", "assay_type": "cell-based", "conditions": "human PDAC (FIG. 9C)"}, "YAP": {"system": "YAP", "assay": "YAP nuclear translocation (Western blot of fractions)", "assay_type": "cell-based, human", "conditions": "WM46, testosterone exposure (FIG. 12B)", "text": "(§1) (For clarity, this figure highlights only a subset of proteins from the entire data set of 450 proteins at 4 time points). […] FIG. 12B is a Western blot showing that testosterone promotes YAP nuclear translocation in WM46 cells. […] is used as control for the cytosolic fraction; PARP is used as a control for the nuclear fraction.\nWhen activated, YAP and the related transcription factor TAZ are dephosphorylated and move from the cytosol to the nucleus. […] YAP is a substrate for 14-3-3ε, which sequesters YAP in the cytosol. As 14-3-3ε, was one of the proteins most depleted by testosterone, it is believed, without being bound by theory, that 14-3-3ε loss promotes YAP translocation to the nucleus where it then induces expression of tumor-promoting genes. It is likely that the MAK/ERK changes also contribute to testosterone induced YAP activation, as MEK and ERK1/2 are also major positive YAP regulators."}, "murine PDAC": {"system": "murine PDAC", "assay": "Cell proliferation of murine PDAC cells", "assay_type": "cell-based, mouse"}, "[4]": {"system": "WM46 human melanoma cells", "assay": "Reverse Phase Protein Array of testosterone-treated melanoma cells", "assay_type": "cell-based", "conditions": "RPPA, testosterone 0, 30, 60 minutes and 8 hours", "text": "as §1\nTestosterone induces a rapid, ZIP9 dependent, increase in free cytosolic zinc that is required for the hyperproliferation. Zinc is required for myriad cellular enzymes and associated biologic process making it difficult to hypothesize a priori, what signaling mechanism(s) downstream of ZIP9 mediate the testosterone induced hyperproliferation. A 450 element Reverse Phase Protein Array analysis of human melanoma cells treated with testosterone for 0, 30 minutes, 60 minutes and 8 hours (FIG. 12A) was performed."}, "[5]": {"system": "human WM46 melanoma cells", "assay": "Cytosolic zinc influx with Fluo-Zin3 reporter", "assay_type": "cell-based"}, "[6]": {"system": "primary human melanocytes", "assay": "Cell proliferation of primary human melanocytes", "assay_type": "cell-based", "conditions": "androgen treatment (FIG. 3A)"}, "[7]": {"conditions": "male SCID mice, 20 mg/kg/day systemic daily (FIG. 13C)"}}, "data": [{"smiles": "c1ccc(CN(CCN(Cc2ccccn2)Cc2ccccn2)Cc2ccccn2)nc1", "note": "[TPEN, N,N,N′,N′-tetrakis (2-pyridinylmethyl)-1,2-ethanediamine]", "values": [{"measurement": "effect on testosterone stimulated proliferation", "setting": "[1]; YUMM, zinc chelator plus testosterone (FIG. 7B)", "value": "blocked"}, {"measurement": "effect on proliferation on its own", "setting": "[2]; WM46, without testosterone (FIG. 4C)", "value": "no significant effect"}, {"measurement": "effect on testosterone induced proliferation", "setting": "[2]; WM46, zinc chelator plus testosterone, 6 days (FIG. 4C)", "value": "completely blocked"}, {"measurement": "effect on testosterone p-ERK induction", "setting": "p-ERK (MAPK activation); with testosterone (FIG. 10B)", "value": "completely blocked"}]}, {"smiles": "C[C@]12CCC(=O)C=C1CC[C@@H]1[C@@H]2CC[C@]2(C)C(=O)CC[C@@H]12", "note": "[androstenedione]", "values": [{"measurement": "ZIP9 binding specificity / affinity", "setting": "ZIP9", "value": "relatively low affinity"}]}, {"smiles": "CNC(=O)c1ccc(N2C(=S)N(c3cnc(C#N)c(C(F)(F)F)c3)C(=O)C23CCC3)cc1F", "note": "[apalutamide]", "values": [{"measurement": "effect on testosterone driven increased proliferation", "setting": "[2]; WM46 (FIG. 10E)", "value": "inhibit testosterone driven increased proliferation"}, {"measurement": "effect on testosterone dependent-increased proliferation", "setting": "[2]; WM46, treated with 204 Apalutamide (so in the source)", "value": "reverted"}, {"measurement": "effect on tumors with engineered ZIP9 loss", "setting": "human WM46 melanoma", "value": "no significant effect"}, {"measurement": "melanoma growth", "setting": "human WM46 melanoma; female mice, systemic delivery", "value": "no effect"}, {"measurement": "survival", "setting": "human WM46 melanoma; [7]", "value": "extend survival"}, {"measurement": "tumor growth", "setting": "human WM46 melanoma; [7]", "value": "inhibits tumor growth"}]}, {"smiles": "CC(O)(CS(=O)(=O)c1ccc(F)cc1)C(=O)Nc1ccc(C#N)c(C(F)(F)F)c1", "note": "(stereo not shown) [bicalutamide]", "values": [{"measurement": "effect on cell proliferation in the absence of testosterone", "setting": "melanoma cells", "value": "no effect"}, {"measurement": "effect on tumors with engineered ZIP9 loss", "setting": "human WM46 melanoma", "value": "no significant effect"}, {"measurement": "tumor growth", "setting": "human WM46 melanoma; female mice, 30 mg/kg/day via oral gavage (FIG. 13A)", "value": "no effect"}, {"measurement": "cell lines in which testosterone-induced hyperproliferation is blocked", "setting": "[3]; FIG. 11", "value": "10/12"}]}, {"smiles": "C[C@]12CCC(=O)C[C@@H]1CC[C@@H]1[C@@H]2CC[C@]2(C)[C@@H](O)CC[C@@H]12", "note": "[dihydrotestosterone]", "values": [{"measurement": "ZIP9 binding specificity / affinity", "setting": "ZIP9", "value": "relatively low affinity"}]}, {"smiles": "[Fe]", "note": "[iron]", "values": [{"measurement": "proliferation following addition of cations", "setting": "[2]", "value": "Only zinc promoted proliferation"}]}, {"smiles": "[Mn+2]", "note": "[manganese]", "values": [{"measurement": "proliferation following addition of cations", "setting": "[2]", "value": "Only zinc promoted proliferation"}]}, {"smiles": "C[C@]12CC[C@H]3[C@@H](CCC4=CC(=O)CC[C@@]43C)[C@@H]1CC[C@@H]2O", "note": "[testosterone]", "values": [{"measurement": "cellular proliferation", "setting": "[1]; mouse melanoma cells, androgen treatment (FIG. 3A)", "value": "markedly increased cellular proliferation"}, {"measurement": "proliferation of isogenic clones lacking ZIP9", "setting": "[1]; ΔZIP9 YUMM (FIG. 7B)", "value": "no effect"}, {"measurement": "cellular proliferation", "setting": "[2]", "value": "markedly increased cellular proliferation"}, {"measurement": "concentration of maximum proliferative response", "setting": "[2]", "value": 75, "unit": "nM"}, {"measurement": "proliferation of isogenic clones lacking ZIP9", "setting": "[2]", "value": "no effect"}, {"measurement": "proliferation", "setting": "human PDAC", "value": "promotes proliferation"}, {"measurement": "time to YAP movement from cytoplasm to nucleus", "setting": "YAP", "value": "30 to 60", "unit": "min"}, {"measurement": "ERK phosphorylation", "setting": "p-ERK (MAPK activation); testosterone treatment (FIG. 3B)", "value": "increases ERK phosphorylation"}, {"measurement": "response of ΔZIP9 cells in vitro", "setting": "murine PDAC; mPDAC ΔZIP9 (FIG. 9E)", "value": "do not respond"}, {"measurement": "proliferation", "setting": "murine PDAC; murine PDAC (FIG. 9C)", "value": "promotes proliferation"}, {"measurement": "ZIP9 binding specificity / affinity", "setting": "ZIP9", "value": "highly specific"}, {"measurement": "14-3-3c protein expression", "setting": "[4]", "value": "downregulated"}, {"measurement": "CDKN2A (p16) protein expression", "setting": "[4]", "value": "downregulated"}, {"measurement": "YAP1 protein expression", "setting": "[4]", "value": "Upregulated"}, {"measurement": "phosphorylated ERK (T202; Y204) level", "setting": "[4]", "value": "Upregulated"}, {"measurement": "duration of sustained elevation in free cytosolic zinc", "setting": "[5]; WM46, in the presence of the androgen (FIG. 4B)", "value": "at least 2 days"}, {"measurement": "zinc influx", "setting": "[5]; WM46, over 5 minutes (FIG. 4A)", "value": "rapid zinc influx"}, {"measurement": "effect on zinc in cells lacking ZIP9", "setting": "[5]; ΔZIP9 WM46 (FIG. 7C)", "value": "no significant effect"}, {"measurement": "cellular proliferation", "setting": "[6]", "value": "markedly increased cellular proliferation"}, {"measurement": "proliferative response to testosterone", "setting": "[3]; MCF7 cells", "value": "did not respond"}, {"measurement": "proliferative response to testosterone", "setting": "[3]; U87 cells", "value": "did not respond"}]}, {"smiles": "[Zn+2]", "note": "[zinc]", "values": [{"measurement": "proliferation following addition of cations", "setting": "[2]", "value": "promoted proliferation"}]}]}
